From patent EP1247803A2, “Indolinone compounds suitable for modulation of protein kinases” (Sugen, Inc., priority 1996, dated 1998)

Legend:
PDGF-R = PDGF-R (Homo sapiens, UniProt P09619); experiment: PDGF-R ELISA; assay type: cell-based
Description: A PDGF-R ELISA is described in International Patent Publication No. WO 96/40116, published December 19, 1996 by Tang et al.

EGFR = target: T1, EGFR (Homo sapiens, UniProt P00533); experiment: EGFR ELISA assay (in vitro kinase activity, EGFR captured from A431 cell lysate); assay type: biochemical; parameters: concentration or dose not given beside the values
T1 construct: Add 7 ug A431 cell lysate per well (EGFR source); endogenous in cells; host or cells: A431
Summary of the method: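 Receptor autophosphorylation was read by ELISA: anti-phosphotyrosine serum and an HRP-linked secondary with ABTS substrate, absorbance at 410 nm (reference 630 nm). The reaction ran 5 min with 3 µM ATP and 5 mM MnCl2 and was quenched by 20 mM EDTA. Compounds were first incubated 30 min with antibody-captured EGFR from A431 cell lysate.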

T1 sequence (P00533 25-1210): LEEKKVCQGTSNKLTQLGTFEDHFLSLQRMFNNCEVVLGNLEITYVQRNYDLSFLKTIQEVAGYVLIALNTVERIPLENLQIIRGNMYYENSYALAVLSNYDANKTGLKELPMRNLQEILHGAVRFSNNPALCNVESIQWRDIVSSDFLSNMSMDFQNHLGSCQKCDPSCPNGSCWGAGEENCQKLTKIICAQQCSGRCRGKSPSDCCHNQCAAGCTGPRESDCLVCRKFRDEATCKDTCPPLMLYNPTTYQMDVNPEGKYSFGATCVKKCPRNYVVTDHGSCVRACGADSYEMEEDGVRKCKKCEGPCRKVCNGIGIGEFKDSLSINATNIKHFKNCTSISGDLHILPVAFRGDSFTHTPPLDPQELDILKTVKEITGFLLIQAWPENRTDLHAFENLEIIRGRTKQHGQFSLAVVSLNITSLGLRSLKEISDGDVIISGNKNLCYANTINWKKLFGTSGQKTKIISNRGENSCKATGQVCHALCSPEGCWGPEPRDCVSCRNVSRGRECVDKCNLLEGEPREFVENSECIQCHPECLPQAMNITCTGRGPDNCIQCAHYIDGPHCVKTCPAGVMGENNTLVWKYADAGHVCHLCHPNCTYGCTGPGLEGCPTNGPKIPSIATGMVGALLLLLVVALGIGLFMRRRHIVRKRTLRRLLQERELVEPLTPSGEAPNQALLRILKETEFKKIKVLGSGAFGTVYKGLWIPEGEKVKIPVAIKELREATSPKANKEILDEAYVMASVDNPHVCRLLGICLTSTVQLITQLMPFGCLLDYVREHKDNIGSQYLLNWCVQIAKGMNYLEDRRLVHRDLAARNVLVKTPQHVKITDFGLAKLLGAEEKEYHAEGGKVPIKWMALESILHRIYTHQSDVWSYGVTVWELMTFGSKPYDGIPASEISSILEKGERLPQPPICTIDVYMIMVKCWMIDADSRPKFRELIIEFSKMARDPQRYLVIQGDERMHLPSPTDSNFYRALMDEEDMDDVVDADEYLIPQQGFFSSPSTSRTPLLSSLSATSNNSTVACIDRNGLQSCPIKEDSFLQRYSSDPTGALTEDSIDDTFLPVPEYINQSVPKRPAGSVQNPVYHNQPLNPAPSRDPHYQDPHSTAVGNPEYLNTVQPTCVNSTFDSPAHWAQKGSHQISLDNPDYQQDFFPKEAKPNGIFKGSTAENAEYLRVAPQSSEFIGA
Chain of PDGF-R (P09619 33-1106, species assumed): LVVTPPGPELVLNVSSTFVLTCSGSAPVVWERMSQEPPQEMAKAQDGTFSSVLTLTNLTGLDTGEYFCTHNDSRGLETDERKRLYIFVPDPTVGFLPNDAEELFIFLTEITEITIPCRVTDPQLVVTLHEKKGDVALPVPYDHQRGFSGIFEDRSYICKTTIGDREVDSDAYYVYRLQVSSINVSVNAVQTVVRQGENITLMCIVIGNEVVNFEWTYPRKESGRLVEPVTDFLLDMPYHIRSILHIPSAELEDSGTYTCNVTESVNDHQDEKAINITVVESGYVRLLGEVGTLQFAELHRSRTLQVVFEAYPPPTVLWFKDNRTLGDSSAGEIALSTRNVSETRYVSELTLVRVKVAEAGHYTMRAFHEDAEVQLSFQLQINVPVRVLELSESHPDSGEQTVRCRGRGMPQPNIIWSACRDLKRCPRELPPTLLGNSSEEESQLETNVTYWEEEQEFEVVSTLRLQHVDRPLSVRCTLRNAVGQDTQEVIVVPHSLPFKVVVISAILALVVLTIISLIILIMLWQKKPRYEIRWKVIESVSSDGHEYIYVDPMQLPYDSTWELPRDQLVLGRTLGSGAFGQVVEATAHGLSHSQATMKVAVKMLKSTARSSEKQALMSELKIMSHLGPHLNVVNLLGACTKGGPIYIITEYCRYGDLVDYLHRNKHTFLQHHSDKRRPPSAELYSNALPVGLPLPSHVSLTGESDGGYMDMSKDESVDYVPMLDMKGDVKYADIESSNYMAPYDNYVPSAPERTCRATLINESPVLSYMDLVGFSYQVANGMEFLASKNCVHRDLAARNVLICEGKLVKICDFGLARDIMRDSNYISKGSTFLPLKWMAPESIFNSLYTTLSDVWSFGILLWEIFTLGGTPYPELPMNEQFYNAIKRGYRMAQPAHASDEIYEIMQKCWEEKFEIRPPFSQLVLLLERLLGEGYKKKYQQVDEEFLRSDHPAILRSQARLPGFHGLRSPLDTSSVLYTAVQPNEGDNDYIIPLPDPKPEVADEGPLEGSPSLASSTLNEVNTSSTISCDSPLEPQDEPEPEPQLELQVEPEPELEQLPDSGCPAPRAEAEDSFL

Row | Structure (SMILES) | PDGF Kinase %Inhibition (PDGF-R) | Biochem EGFR %Inhibition (EGFR)
1 | CNS(=O)(=O)c1ccc2c(c1)C(=Cc1coc3cc(C)c(C)cc3c1=O)C(=O)N2 [10731/D03] | 28.4% | 16.3%
2 | Cc1cc(C=C2C(=O)Nc3ccc(CCCl)cc32)oc1C [10730/G11] | -0.3% | 26.2%
3 | Cc1cc2occ(C=C3C(=O)Nc4ccc(Br)c(C)c43)c(=O)c2cc1C [10731/C03] | 11.3% | 9.1%
4 | CCn1c2ccccc2c2cc(C=C3C(=O)Nc4ccc(Br)c(C)c43)ccc21 [10731/C02] | -2.5% | -6.9%
5 | CC(=O)n1cc(C=C2C(=O)Nc3ccc(CCCl)cc32)c2ccccc21 [10730/G05] | 65.0% | -18.2%
6 | CC(C)c1ccc2occ(C=C3C(=O)Nc4ccc(I)cc43)c(=O)c2c1 [10731/B05] | 17.9% | 35.9%
7 | Cc1c(O)ccc(C=C2C(=O)Nc3ccc(Br)c(C)c32)c1O [10718/C09] |  | 26.5%
8 | Cc1cc2occ(C=C3C(=O)Nc4c(Br)cc(Br)cc43)c(=O)c2cc1C [10731/A03] | 7.5% | 10.8%
9 | C=C(C)C1CC=C(C=C2C(=O)Nc3c(Br)cc(Br)cc32)CC1 (centres unmarked) [10731/A04] | 5.1% | 20.2%
10 | Cc1cc2occ(C=C3C(=O)Nc4ccc(I)cc43)c(=O)c2cc1C [10731/B03] | 9.9% | 12.3%
11 | Cc1c(Br)ccc2c1C(=Cc1coc3ccc(C(C)C)cc3c1=O)C(=O)N2 [10731/C05] | 22.7% | 35.5%
12 | Cc1ccc2occ(C=C3C(=O)Nc4c(Br)cc(Br)cc43)c(=O)c2c1 [10731/A06] | 1.3% | 30.1%
13 | Cc1c(Br)ccc2c1C(=Cc1coc3ccc([N+](=O)[O-])cc3c1=O)C(=O)N2 [10731/C07] | 31.3% | 35.5%
14 | COc1cc(C=C2C(=O)Nc3ccc(CCCl)cc32)cc(OC)c1OC [10730/G04] | 21.6% | -6.7%
15 | CCn1c2ccccc2c2cc(C=C3C(=O)Nc4c(Br)cc(Br)cc43)ccc21 [10731/A02] | -3.9% | 14.8%
16 | O=C1Nc2ccc(S(=O)(=O)N3CCOCC3)cc2C1=Cc1coc2c(Br)cc(Br)cc2c1=O [10730/F09] | 13.3% | 17.9%
17 | C=C(C)C1CC=C(C=C2C(=O)Nc3ccc(Br)c(C)c32)CC1 (centres unmarked) [10731/C04] | 15.1% | 31.0%
18 | CCOC(=O)c1cc(C=C2C(=O)Nc3ccc(Br)c(C)c32)oc1C [10718/C06] |  | 5.6%
19 | Cc1c(Br)ccc2c1C(=C1C(=O)N(C)c3ccccc31)C(=O)N2 [10731/C10] | 6.5% | 20.9%
20 | O=C1Nc2c(Br)cc(Br)cc2C1=Cc1c[nH]c(=O)[nH]c1=O [10731/A08] | -2.5% | 25.7%
21 | CCn1c2ccccc2c2cc(C=C3C(=O)Nc4ccc(I)cc43)ccc21 [10731/B02] | 13.2% | 15.5%
22 | CN1C(=O)C(=C2C(=O)Nc3c(Br)cc(Br)cc32)c2ccccc21 [10731/A10] | -3.5% | 26.3%
23 | O=C1Nc2ccc(CCCl)cc2C1=Cc1ccc(-c2ccccc2Cl)o1 [10730/G07] | 19.9% | 6.4%

Row | Structure (SMILES) | PDGF Kinase %Inhibition (PDGF-R) | Biochem EGFR %Inhibition (EGFR)
24 | O=C1Nc2ccc(I)cc2C1=Cc1c[nH]c(=O)[nH]c1=O [10731/B08] | -23.4% | 37.2%
25 | COc1ccc2[nH]cc(C=C3C(=O)Nc4ccc(Br)c(C)c43)c2c1 [10731/C09] | -6.3% | 16.8%
26 | COc1ccc(C=C2C(=O)Nc3ccc(CCCl)cc32)c(OC)c1OC [10730/G02] | 18.1% | 20.8%
27 | COc1cc(OC)c(OC)cc1C=C1C(=O)Nc2ccc(CCCl)cc21 [10730/G03] | 44.0% | -6.9%
28 | O=C1Nc2ccc(I)cc2C1=Cc1coc2ccc([N+](=O)[O-])cc2c1=O [10731/B07] | 6.0% | 29.1%
29 | COC1CC(C=C2C(=O)Nc3ccc(S(=O)(=O)N4CCOCC4)cc32)C(OC)O1 (centres unmarked) [10730/F10] | 1.9% | 6.2%
30 | Cc1cc(C=C2C(=O)Nc3ccc(S(=O)(=O)N4CCOCC4)cc32)oc1C [10730/F11] | 4.5% | -24.1%
31 | COC1CC(C=C2C(=O)Nc3ccc(CCCl)cc32)C(OC)O1 (centres unmarked) [10730/G10] | 22.1% | 3.1%
32 | CCOC(=O)CCc1c(C(=O)OCC)[nH]c(C=C2C(=O)Nc3ccc(Br)c(C)c32)c1CC(=O)OCC [10718/C05] |  | 10.9%
33 | CN1C(=O)C(=C2C(=O)Nc3ccc(I)cc32)c2ccccc21 [10731/B10] | 4.6% | 50.5%
34 | O=C1Nc2c(Br)cc(Br)cc2C1=Cc1ccc[nH]1 [10717/A09] |  | 37.7%
35 | Cc1ccc2occ(C=C3C(=O)Nc4ccc(I)cc43)c(=O)c2c1 [10731/B06] | 5.6% | 37.5%
36 | Cc1ccc2occ(C=C3C(=O)Nc4ccc(Br)c(C)c43)c(=O)c2c1 [10731/C06] | 7.0% | 23.1%
37 | COC(=O)c1[nH]c(C)c(C=C2C(=O)Nc3ccc(Br)c(C)c32)c1C(=O)OC [10718/C07] |  | -4.9%
38 | Cc1c(Br)ccc2c1C(=Cc1ccc(Cl)c([N+](=O)[O-])c1)C(=O)N2 [10718/C08] |  | 13.1%
39 | Cc1c(Br)ccc2c1C(=Cc1c[nH]c(=O)[nH]c1=O)C(=O)N2 [10731/C08] | -3.0% | 23.6%
40 | CCn1c2ccccc2c2cc(C=C3C(=O)Nc4ccc(S(=O)(=O)NC)cc43)ccc21 [10731/D02] | 17.9% | 4.9%
41 | C=C(C)C1CC=C(C=C2C(=O)Nc3ccc(I)cc32)CC1 (centres unmarked) [10731/B04] | 0.3% | 31.3%
42 | O=C1Nc2c(Br)cc(Br)cc2C1=Cc1coc2ccc([N+](=O)[O-])cc2c1=O [10731/A07] | 4.6% | 39.4%
43 | CC(C)c1ccc2occ(C=C3C(=O)Nc4c(Br)cc(Br)cc43)c(=O)c2c1 [10731/A05] | 14.1% | 34.3%
44 | O=C1Nc2ccc(CCCl)cc2C1=Cc1cc2ccccc2nc1Cl [10730/G08] | 20.3% | 9.5%
45 | COc1ccc2[nH]cc(C=C3C(=O)Nc4ccc(I)cc43)c2c1 [10731/B09] | 0.3% | 15.0%
46 | COc1ccc2[nH]cc(C=C3C(=O)Nc4c(Br)cc(Br)cc43)c2c1 [10731/A09] | -14.4% | 21.9%
